Results from US12559529B2, “NPY2 receptor agonists” (Boehringer Ingelheim International GmbH, priority 2019, dated 2026).
*1 amine or outer side, *2 acyl side, *3 side chain or, on linkers, in order; H or OH if unused. Where a SMILES comes first, the peptide text is derived from it. Side-chain parts run from the residue outwards. The star is where a group is joined. C18 diacid = O=C(O)CCCCCCCCCCCCCCCCC(=O)*; γGlu = O=C(O)[C@H](CCC(=O)[*:2])N[*:1]; Isovaleryl = CC(C)CC(=O)*; AEEA = NCCOCCOCC(=O)O

Biological target: T1, Human Neuropeptide Y2 Receptor (Homo sapiens, UniProt P49146)
T1 construct: purchased CHEMICON HTS066M
T1 sequence (P49146 1-381): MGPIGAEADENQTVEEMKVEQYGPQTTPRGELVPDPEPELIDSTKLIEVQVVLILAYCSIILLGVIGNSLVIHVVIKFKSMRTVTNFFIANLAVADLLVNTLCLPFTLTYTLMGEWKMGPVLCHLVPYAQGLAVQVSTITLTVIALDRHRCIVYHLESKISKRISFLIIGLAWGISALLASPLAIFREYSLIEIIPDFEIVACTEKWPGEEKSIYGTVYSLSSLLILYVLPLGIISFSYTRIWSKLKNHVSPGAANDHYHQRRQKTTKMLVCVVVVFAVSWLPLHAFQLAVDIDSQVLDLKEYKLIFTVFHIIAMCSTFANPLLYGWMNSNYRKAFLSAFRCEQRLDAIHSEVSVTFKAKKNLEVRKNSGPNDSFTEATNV
Test: Radioligand binding competition assay (RLB)
Settings: Table 3; human 125I-PYY (1-36) 0.02 nM, Y2 receptor membranes; read-out: Ki
How it was run: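 Filtration format; Y2R membrane prep 0.5 μg/well; buffer 50 mM HEPES/5 mM MgCl2/1 mM CaCl2/0.2% ovalbumin pH 7.4; 2 h RT, shaking. Harvest on PEI-soaked GF/C, ice-cold HEPES/500 mM NaCl washes, scintillation count. IC50 by nonlinear fit.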

CC(C)CC(=O)N[C@@H](C)C(=O)N1CCC[C@H]1C(=O)N[C@@H](CCC(=O)O)C(=O)N[C@@H](CCCCNC(=O)COCCOCCNC(=O)COCCOCCNC(=O)CC[C@H](NC(=O)CCCCCCCCCCCCCCCCC(=O)O)C(=O)O)C(=O)N1CCC[C@H]1C(=O)N[C@@H](CCC(=O)O)C(=O)N[C@@H](CCC(=O)O)C(=O)N[C@@H](CC(=O)O)C(=O)N[C@H](C(=O)N[C@@H](CCC(=O)O)C(=O)N1CCC[C@H]1C(=O)N[C@@H](CCC(=O)O)C(=O)N[C@@H](CCC(=O)O)C(=O)N[C@@H](CC(C)C)C(=O)N[C@@H](CCC(N)=O)C(=O)N[C@@H](CCCNC(=N)N)C(=O)N[C@@H](Cc1ccc(O)cc1)C(=O)N[C@@H](Cc1ccc(O)cc1)C(=O)N[C@H](C(=O)N[C@@H](CO)C(=O)N[C@@H](CC(C)C)C(=O)N[C@@H](CCCNC(=N)N)C(=O)N[C@@H](Cc1c[nH]cn1)C(=O)N[C@@H](Cc1ccc(O)cc1)C(=O)N[C@@H](Cc1ccc(O)cc1)C(=O)N[C@@H](CC(N)=O)C(=O)N[C@@H](Cc1c[nH]c2ccccc12)C(=O)N[C@@H](CC(C)C)C(=O)N[C@H](C(=O)N[C@@H](CCCNC(=N)N)C(=O)N[C@@H](CCC(N)=O)C(=O)N[C@@H](CCCNC(=N)N)C(=O)N[C@@H](Cc1ccc(O)cc1)C(N)=O)[C@@H](C)O)C(C)C)[C@@H](C)O [Compound 48, N{alpha-4}-(3-methylbutanoyl)-N{epsilon-7}-[2-(2-{2-[2-(2-{2-[(4S)-4-carboxy-4-(17-carboxyheptadecanamido)butanamido]ethoxy}ethoxy)acetamido]ethoxy}ethoxy)acetamido]-[4A,7K,9E,12T,13E,18Q,22V,28Y,30W,31L]hPYY (4-36)]
Ki: 38.9 nM

CC(C)CC(=O)N[C@@H](C)C(=O)N1CCC[C@H]1C(=O)N[C@@H](CCC(=O)O)C(=O)N[C@@H](CCCCNC(=O)COCCOCCNC(=O)COCCOCCNC(=O)CC[C@H](NC(=O)CCCCCCCCCCCCCCCCC(=O)O)C(=O)O)C(=O)N[C@@H](C)C(=O)N[C@@H](CCC(=O)O)C(=O)N[C@@H](CCC(=O)O)C(=O)N[C@@H](CCC(=O)O)C(=O)N[C@@H](C)C(=O)N[C@@H](CO)C(=O)N1CCC[C@H]1C(=O)N[C@@H](CCC(=O)O)C(=O)N[C@@H](CCC(=O)O)C(=O)N[C@@H](CC(C)C)C(=O)N[C@@H](CCC(N)=O)C(=O)N[C@@H](CCCNC(=N)N)C(=O)N[C@@H](Cc1ccc(O)cc1)C(=O)N[C@@H](Cc1ccc(O)cc1)C(=O)N[C@H](C(=O)N[C@@H](CO)C(=O)N[C@@H](CC(C)C)C(=O)N[C@@H](CCCNC(=N)N)C(=O)N[C@@H](Cc1c[nH]cn1)C(=O)N[C@@H](Cc1ccc(O)cc1)C(=O)N[C@@H](Cc1ccc(O)cc1)C(=O)N[C@@H](CC(N)=O)C(=O)N[C@@H](Cc1c[nH]c2ccccc12)C(=O)N[C@@H](CC(C)C)C(=O)N[C@H](C(=O)N[C@@H](CCCNC(=N)N)C(=O)N[C@@H](CCC(N)=O)C(=O)N[C@@H](CCCNC(=N)N)C(=O)N[C@@H](Cc1ccc(O)cc1)C(N)=O)[C@@H](C)O)C(C)C [Compound 51, N{alpha-4}-(3-methylbutanoyl)-N{epsilon-7}-[2-(2-{2-[2-(2-{2-[(4S)-4-carboxy-4-(17-carboxyheptadecanamido)butanamido]ethoxy}ethoxy)acetamido]ethoxy}ethoxy)acetamido]-[4A,7K,8A,9E,11E,18Q,22V,28Y,30W,31L]hPYY (4-36)] (Isovaleryl-APEK([AEEA-AEEA-γGlu-C18 diacid])AEEEASPEELQRYYVSLRHYYNWLTRQRY-NH2)
Ki: 39.4 nM

CC(C)CC(=O)N[C@@H](C)C(=O)N1CCC[C@H]1C(=O)N[C@@H](CCC(=O)O)C(=O)N[C@@H](CCCCNC(=O)COCCOCCNC(=O)COCCOCCNC(=O)CC[C@H](NC(=O)CCCCCCCCCCCCCCCCC(=O)O)C(=O)O)C(=O)N[C@@H](C)C(=O)N[C@@H](CCC(=O)O)C(=O)N[C@@H](CCC(=O)O)C(=O)N[C@@H](CC(=O)O)C(=O)N[C@@H](C)C(=O)N[C@@H](CO)C(=O)N[C@@H](CCC(=O)O)C(=O)N[C@@H](CCC(=O)O)C(=O)N[C@@H](CCC(=O)O)C(=O)N[C@@H](CC(C)C)C(=O)N[C@@H](CCC(N)=O)C(=O)N[C@@H](CCCNC(=N)N)C(=O)N[C@@H](Cc1ccc(O)cc1)C(=O)N[C@@H](Cc1ccc(O)cc1)C(=O)N[C@H](C(=O)N[C@@H](CO)C(=O)N[C@@H](CC(C)C)C(=O)N[C@@H](CCCNC(=N)N)C(=O)N[C@@H](Cc1c[nH]cn1)C(=O)N[C@@H](Cc1ccc(O)cc1)C(=O)N[C@@H](Cc1ccc(O)cc1)C(=O)N[C@@H](CC(N)=O)C(=O)N[C@@H](Cc1c[nH]c2ccccc12)C(=O)N[C@@H](CC(C)C)C(=O)N[C@H](C(=O)N[C@@H](CCCNC(=N)N)C(=O)N[C@@H](CCC(N)=O)C(=O)N[C@@H](CCCNC(=N)N)C(=O)N[C@@H](Cc1ccc(O)cc1)C(N)=O)[C@@H](C)O)C(C)C [Compound 52, N{alpha-4}-(3-methylbutanoyl)-N{epsilon-7}-[2-(2-{2-[2-(2-{2-[(4S)-4-carboxy-4-(17-carboxyheptadecanamido)butanamido]ethoxy}ethoxy)acetamido]ethoxy}ethoxy)acetamido]-[4A,7K,8A,9E,14E,18Q,22V,28Y,30W,31L]hPYY (4-36)]
Ki: 8.53 nM

CC(C)CC(=O)N[C@@H](C)C(=O)N1CCC[C@H]1C(=O)N[C@@H](CCC(=O)O)C(=O)N[C@@H](CCCCNC(=O)COCCOCCNC(=O)COCCOCCNC(=O)CC[C@H](NC(=O)CCCCCCCCCCCCCCCCC(=O)O)C(=O)O)C(=O)N1CCC[C@H]1C(=O)N[C@@H](CCC(=O)O)C(=O)N[C@@H](CCC(=O)O)C(=O)N[C@@H](CC(=O)O)C(=O)N[C@@H](C)C(=O)N[C@@H](CO)C(=O)N1CCC[C@H]1C(=O)N[C@@H](CCC(=O)O)C(=O)N[C@@H](CCC(=O)O)C(=O)N[C@@H](C)C(=O)N[C@@H](CCC(N)=O)C(=O)N[C@@H](CCCNC(=N)N)C(=O)N[C@@H](Cc1ccc(O)cc1)C(=O)N[C@@H](Cc1ccc(O)cc1)C(=O)N[C@H](C(=O)N[C@@H](CO)C(=O)N[C@@H](CC(C)C)C(=O)N[C@@H](CCCNC(=N)N)C(=O)N[C@@H](Cc1c[nH]cn1)C(=O)N[C@@H](Cc1ccc(O)cc1)C(=O)N[C@@H](Cc1ccc(O)cc1)C(=O)N[C@@H](CC(N)=O)C(=O)N[C@@H](Cc1c[nH]c2ccccc12)C(=O)N[C@@H](CC(C)C)C(=O)N[C@H](C(=O)N[C@@H](CCCNC(=N)N)C(=O)N[C@@H](CCC(N)=O)C(=O)N[C@@H](CCCNC(=N)N)C(=O)N[C@@H](Cc1ccc(O)cc1)C(N)=O)[C@@H](C)O)C(C)C [Compound 55, N{alpha-4}-(3-methylbutanoyl)-N{epsilon-7}-[2-(2-{2-[2-(2-{2-[(4S)-4-carboxy-4-(17-carboxyheptadecanamido)butanamido]ethoxy}ethoxy)acetamido]ethoxy}ethoxy)acetamido]-[4A,7K,9E,17A,18Q,22V,28Y,30W,31L]hPYY (4-36)]
Ki: 3.35 nM

CC(C)CC(=O)N[C@@H](C)C(=O)N1CCC[C@H]1C(=O)N[C@@H](CCC(=O)O)C(=O)N[C@@H](CCCCNC(=O)COCCOCCNC(=O)COCCOCCNC(=O)CC[C@H](NC(=O)CCCCCCCCCCCCCCCCC(=O)O)C(=O)O)C(=O)N1CCC[C@H]1C(=O)N[C@@H](CCC(=O)O)C(=O)N[C@@H](CCC(=O)O)C(=O)N[C@@H](C)C(=O)N[C@@H](C)C(=O)N[C@@H](CO)C(=O)N1CCC[C@H]1C(=O)N[C@@H](CCC(=O)O)C(=O)N[C@@H](CCC(=O)O)C(=O)N[C@@H](CC(C)C)C(=O)N[C@@H](CCC(=O)O)C(=O)N[C@@H](CCC(N)=O)C(=O)N[C@@H](Cc1ccc(O)cc1)C(=O)N[C@@H](Cc1ccc(O)cc1)C(=O)N[C@H](C(=O)N[C@@H](CO)C(=O)N[C@@H](CC(C)C)C(=O)N[C@@H](CCCNC(=N)N)C(=O)N[C@@H](Cc1c[nH]cn1)C(=O)N[C@@H](Cc1ccc(O)cc1)C(=O)N[C@@H](Cc1ccc(O)cc1)C(=O)N[C@@H](CC(N)=O)C(=O)N[C@@H](Cc1c[nH]c2ccccc12)C(=O)N[C@@H](CC(C)C)C(=O)N[C@H](C(=O)N[C@@H](CCCNC(=N)N)C(=O)N[C@@H](CCC(N)=O)C(=O)N[C@@H](CCCNC(=N)N)C(=O)N[C@@H](Cc1ccc(O)cc1)C(N)=O)[C@@H](C)O)C(C)C [Compound 60, N{alpha-4}-(3-methylbutanoyl)-N{epsilon-7}-[2-(2-{2-[2-(2-{2-[(4S)-4-carboxy-4-(17-carboxyheptadecanamido)butanamido]ethoxy}ethoxy)acetamido]ethoxy}ethoxy)acetamido]-[4A,7K,9E,11A,18E,19Q,22V,28Y,30W,31L]hPYY (4-36)] (Isovaleryl-APEK([AEEA-AEEA-γGlu-C18 diacid])PEEAASPEELEQYYVSLRHYYNWLTRQRY-NH2)
Ki: 5.95 nM
